{"source": "patent US11976083B2", "about": "“Inhibitors of peptidylarginine deiminases” (Gilead Sciences, Inc., priority 2020, dated 2024)", "data": [{"target": "T1, human PAD4 (Homo sapiens, UniProt Q9UM07)", "T1 construct": "human PAD4 (NM_012387), A2-P663, was PCR amplified; His-SUMO (N, cleaved yes); made in house; host or cells: E. coli BL21(DE3)", "T1 sequence (Q9UM07 2-663)": "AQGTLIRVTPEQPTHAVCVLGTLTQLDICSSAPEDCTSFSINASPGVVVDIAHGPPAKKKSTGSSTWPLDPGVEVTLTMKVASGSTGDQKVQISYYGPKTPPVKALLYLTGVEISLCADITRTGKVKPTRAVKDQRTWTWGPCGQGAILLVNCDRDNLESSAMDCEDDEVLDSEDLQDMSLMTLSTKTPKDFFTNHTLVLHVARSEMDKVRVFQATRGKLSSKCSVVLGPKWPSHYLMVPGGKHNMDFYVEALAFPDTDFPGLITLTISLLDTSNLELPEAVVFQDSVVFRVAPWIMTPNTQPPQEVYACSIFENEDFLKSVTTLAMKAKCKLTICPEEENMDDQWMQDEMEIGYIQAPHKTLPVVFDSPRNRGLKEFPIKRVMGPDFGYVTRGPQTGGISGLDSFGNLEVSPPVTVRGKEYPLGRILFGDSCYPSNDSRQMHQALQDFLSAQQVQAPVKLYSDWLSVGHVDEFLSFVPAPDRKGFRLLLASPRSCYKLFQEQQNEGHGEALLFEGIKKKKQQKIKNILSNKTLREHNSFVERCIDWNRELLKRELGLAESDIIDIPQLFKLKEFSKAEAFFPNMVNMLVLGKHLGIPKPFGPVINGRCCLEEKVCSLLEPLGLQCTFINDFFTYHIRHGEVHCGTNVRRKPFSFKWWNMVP", "assay": "In vitro PAD4 BAEE biochemical assay", "details": "BAEE substrate 3 mM, 5 nM PAD4, 2 mM calcium chloride; geometric mean of multiple experiments", "outline": "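Ammonia produced by BAEE deimination (3 mM substrate, 2 h, 25 °C) was read as fluorescent isoindole after o-phthalaldehyde/DTT derivatization, ex 405 nm/em 535 nm. Human PAD4 at 5 nM final, 2 mM calcium, pH 7.6 MOPS; compound preincubated 30 min. IC50s, normalized to BB-Cl-Amidine and DMSO controls, were geometric-mean averaged.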", "units": {"IC50": "nM"}, "values": [{"compound": "COc1cc(C(=O)N2C[C@H](N)[C@@H]3CC[C@H]2C3)cc2nc(-c3cc4ccc5nc4n3CC(F)(F)CCCOC(C)(C)C(=O)N[C@@H]5C)n(C3CC3)c12", "note": "[Example 771, (11~{R})-17-[5-[(1~{S),4~{R}, 5~{R})-4-amino-2-azabicyclo [3.2.1]octane-2-carbonyl]-1-cyclopropyl-7-methoxy-benzimidazol-2-yl]-3,3-difluoro-8,8,11-trimethyl-7-oxa-1,10,19-triazatricyclo[10.5.2.0^ {15,18}]nonadeca-12(19),13,15(18),16-tetraen-9-one]", "IC50": 28}, {"compound": "COc1cc(C(=O)N2C[C@H](N)[C@@H]3CC[C@H]2C3)cc2nc(-c3cc4ccc5nc4n3C[C@H]3C[C@H]3CC[C@]3(F)C[C@H]3C(=O)N[C@@H]5C)n(C3CC3)c12", "note": "[Example 772, (3~{S},5~{R},8~{S},10~ {S},13~{R})-19-[5-[(1~{S},4~ {R},5~{R})-4-amino-2-azabicyclo[3.2.1]octane-2-carbonyl]-1-cyclopropyl-7-methoxy-benzimidazol-2-yl]-8-fluoro-13-methyl-1,12,21-triazapentacyclo[12.5.2.0^ {3,5).0^{8,10}.0^{17,20}] henicosa-14(21), 15,17(20),18-tetraen-11-one]", "IC50": 6}, {"compound": "C[C@H]1NC(=O)C2(CC2)OCCCC(F)(F)Cn2c(-c3nc4cc(C(=O)N5C[C@H](N)[C@@H]6CC[C@H]5C6)cc(F)c4n3C3CC3)cc3ccc1nc32", "note": "[Example 773, (11~{R})-17-[5-[(1~{S},4~{R}, 5~{R})-4-amino-2-azabicyclo [3.2.1]octane-2-carbonyl]-1-cyclopropyl-7-fluoro-benzimidazol-2-yl]-3,3-difluoro-11-methyl-spiro[7-oxa-1,10,19-triazatricyclo[10.5.2.0^ {15,18}]nonadeca-12(19),13,15(18),16-tetraene-8,1′-cyclopropane]-9-one]", "IC50": 16}, {"compound": "C[C@H]1NC(=O)c2ccc(Cl)nc2CCCCCn2c(-c3nc4cc(C(=O)N5CC[C@H]6CC[C@@H]5[C@@H]6N)cc(F)c4n3C3CC3)cc3ccc1nc32", "note": "[Example 774, (2~{R})-17-[5-[(1~{R},5~{R}, 8~{R})-8-amino-2-azabicyclo [3.2.1]octane-2-carbonyl]-1-cyclopropyl-7-fluoro-benzimidazol-2-yl]-8-chloro-2-methyl-3,9,16,22-tetrazatetracyclo[14.5.2.0^ {5,10).0^{19,23}]tricosa-1(22),5(10),6,8,17,19(23),20-heptaen-4-one]", "IC50": 33}, {"compound": "C[C@H]1NC(=O)[C@H]2[C@H](CCCCCn3c(-c4nc5cc(C(=O)N6C[C@H](N)[C@@H]7CC[C@H]6C7)cc(F)c5n4C4CC4)cc4ccc1nc43)C2(F)F", "note": "[Example 775, (2~{R},5~{R},7~{S})-14-[5-[(1~{S},4~{R},5~{R})-4-amino-2-azabicyclo[3.2.1]octane-2-carbonyl]-1-cyclopropyl-7-fluoro-benzimidazol-2-yl]-6,6-difluoro-2-methyl-3,13,19-triazatetracyclo[11.5.2.0^ {5,7).0^{16,20}]icosa-1(19),14,16(20),17-tetraen-4-one]", "IC50": 29}, {"compound": "C[C@H]1NC(=O)c2ccc(C(F)F)nc2CCCCCn2c(-c3nc4cc(C(=O)N5C[C@H](N)[C@@H]6CC[C@H]5C6)cc(F)c4n3[C@@H]3C[C@H]3F)cc3ccc1nc32", "note": "[Example 776, (2~{R})-17-[5-[(1~{S},4~{R}, 5~{R})-4-amino-2-azabicyclo [3.2.1]octane-2-carbonyl]-7-fluoro-1-[(1~{R},2~{R})-2-fluorocyclopropyl]benzimidazol-2-yl]-8-(difluoromethyl)-2-methyl-3,9,16,22-tetrazatetracyclo[14.5.2.0^ {5,10).0^{19,23}]tricosa-1(22),5(10),6,8,17,19(23),20-heptaen-4-one]", "IC50": 17}, {"compound": "COc1cc(C(=O)N2C[C@H](N)[C@@H]3CC[C@H]2C3)cc2nc(-c3cc4ccc5nc4n3CCCCCc3nc(C(F)F)ccc3C(=O)N[C@@H]5C)c(C)n12", "note": "[Example 777, (2~{R})-17-[7-[(1~{S},4~{R},5~ {R})-4-amino-2-azabicyclo [3.2.1]octane-2-carbonyl]-5-methoxy-3-methyl-imidazo[1,2-a]pyridin-2-yl]-8-(difluoromethyl)-2-methyl-3,9,16,22-tetrazatetracyclo [14.5.2.0^{5,10).0^{19,23}] tricosa-1(22),5(10),6,8,17, 19(23),20-heptaen-4-one]", "IC50": 17}, {"compound": "COc1cc(C(=O)N2CC[C@@H](OC)[C@@H](N)C2)cc2nc(-c3cc4ccc5nc4n3CCCCCCC(C)(C)C(=O)NC5C3CC3)n(C)c12", "note": "(some centres unmarked) [Example 778, 17-[5-[(3~{S),4~{R})-3-amino-4-methoxy-piperidine-1-carbonyl]-7-methoxy-1-methyl-benzimidazol-2-yl]-11-cyclopropyl-8,8-dimethyl-1,10,19-triazatricyclo [10.5.2.0^{15,18}]nonadeca-12,14,16,18-tetraen-9-one]", "IC50": 338}, {"compound": "CCC1NC(=O)C(C)(C)CCCCCCn2c(-c3nc4cc(C(=O)N5CC[C@@H](OC)[C@@H](N)C5)cc(OC)c4n3C)cc3ccc1nc32", "note": "(some centres unmarked) [Example 779, 17-[5-[(3~{S),4~{R})-3-amino-4-methoxy-piperidine-1-carbonyl]-7-methoxy-1-methyl-benzimidazol-2-yl]-11-ethyl-8,8-dimethyl-1,10,19-triazatricyclo[10.5.2.0^ {15,18}]nonadeca-12,14,16,18-tetraen-9-one]", "IC50": 339}, {"compound": "COc1cc(C(=O)N2CC[C@@H](OC)[C@@H](N)C2)cc2nc(-c3cc4ccc5nc4n3CCCCCc3ccc(Cl)nc3C(=O)N[C@@H]5C)n(C)c12", "note": "[Example 780, (2~{R})-17-[5-[(3~{S},4~{R})-3-amino-4-methoxy-piperidine-1-carbonyl]-7-methoxy-1-methyl-benzimidazol-2-yl]-7-chloro-2-methyl-3,6,16,22-tetrazatetracyclo[14.5.2.0^ {5,10).0^{19,23}]tricosa-1(21),5(10),6,8,17,19,22-heptaen-4-one]", "IC50": 53}, {"compound": "COc1cc(C(=O)N2CC[C@@H](OC)[C@@H](N)C2)cc2nc(-c3cc4ccc5nc4n3CCC/C=C/c3ccc(Cl)nc3C(=O)N[C@@H]5C)n(C)c12", "note": "[Example 781, (2~{R},11~{E})-17-[5-[(3~ {S},4~{R})-3-amino-4-methoxy-piperidine-1-carbonyl]-7-methoxy-1-methyl-benzimidazol-2-yl]-7-chloro-2-methyl-3,6,16,22-tetrazatetracyclo[14.5.2.0^ {5,10}.0^{19,23}]tricosa-1(21),5(10),6,8,11,17,19,22-octaen-4-one]", "IC50": 73}, {"compound": "COc1cc(C(=O)N2CC[C@@H](OC)[C@@H](N)C2)cc2nc(-c3cc4ccc5nc4n3CCCCC[C@@H]3C[C@H]3C(=O)NC5(C)C)n(C)c12", "note": "[Example 782, (5˜{R},7˜{R})-14-[5-[(3˜{S},4˜{R})-3-amino-4-methoxy-piperidine-1-carbonyl]-7-methoxy-1-methyl-benzimidazol-2-yl]-2,2-dimethyl-3,13,19-triazatetracyclo[11.5.2.0^{5,7}.0^{16,20}]icosa-1(18),14,16,19-tetraen-4-one]", "IC50": 63}, {"compound": "COc1cc(C(=O)N2CC[C@@H](OC)[C@@H](N)C2)cc2nc(-c3cc4ccc5nc4n3CCCCCc3cc(Cl)cnc3C(=O)N[C@@H]5C)n(C)c12", "note": "[Example 783, (2~{R})-17-[5-[(3~{S},4~{R})-3-amino-4-methoxy-piperidine-1-carbonyl]-7-methoxy-1-methyl-benzimidazol-2-yl]-8-chloro-2-methyl-3,6,16,22-tetrazatetracyclo[14.5.2.0^ {5,10}.0^{19,23}] tricosa-1(21),5(10),6,8,17,19, 22-heptaen-4-one]", "IC50": 109}, {"compound": "COc1cc(C(=O)N2CC[C@@H](OC(F)F)[C@@H](N)C2)cc2nc(-c3cc4ccc5nc4n3CCCCCc3ccc(Cl)nc3C(=O)N[C@@H]5C)n(C)c12", "note": "[Example 784, (2~{R})-17-[5-[(3~{S},4~{R})-3-amino-4-(difluoromethoxy)piperidine-1-carbonyl]-7-methoxy-1-methyl-benzimidazol-2-yl]-7-chloro-2-methyl-3,6,16,22-tetrazatetracyclo[14.5.2.0^ {5,10}.0^{19,23}]tricosa-1(21),5(10),6,8,17,19,22-heptaen-4-one]", "IC50": 97}, {"compound": "COc1cc(C(=O)N2CC[C@@H](OC)[C@@H](N)C2)cc2nc(-c3cc4ccc5nc4n3CCCCCCC(C)(C)C(=O)NC5C(F)(F)F)n(C)c12", "note": "(some centres unmarked) [Example 785, 17-[5-[(3~{S},4~{R})-3-amino-4-methoxy-piperidine-1-carbonyl]-7-methoxy-1-methyl-benzimidazol-2-yl]-8,8-dimethyl-11-(trifluoromethyl)-1,10,19-triazatricyclo [10.5.2.0^{15,18}]nonadeca-12,14,16,18-tetraen-9-one]", "IC50": 954}, {"compound": "COc1cc(C(=O)N2C[C@H](N)C[C@H](O)[C@@H]2C)cc2nc(-c3cc4ccc5nc4n3CCCCCCC(C)(C)C(=O)N[C@@H]5C)n(C)c12", "note": "[Example 786, (11~{R})-17-[5-[(2~{S},3~ {S},5~{R})-5-amino-3-hydroxy-2-methyl-piperidine-1-carbonyl]-7-methoxy-1-methyl-benzimidazol-2-yl]-8,8,11-trimethyl-1,10,19-triazatricyclo[10.5.2.0^ {15,18}]nonadeca-12,14,16,18-tetraen-9-one]", "IC50": 237}, {"compound": "COc1cc(C(=O)N2CC[C@@H](OC)[C@@H](N)C2)cc2nc(-c3cc4ccc5nc4n3CCCCC[C@@H]3C[C@H]3C(=O)NC53CC3)n(C)c12", "note": "[Example 787, (5~{R},7~{R})-14-[5-[(3~{S}, 4~{R})-3-amino-4-methoxy-piperidine-1-carbonyl]-7-methoxy-1-methyl-benzimidazol-2-yl]spiro[3,13,19-triazatetracyclo[11.5.2.0^ {5,7}.0^{16,20}]icosa-1(18),14,16,19-tetraene-2,1′-cyclopropane]-4-one]", "IC50": 94}]}]}
